Consider 6 compounds from patent publication US10808007B2, “Desacetoxytubulysin H and analogs thereof” (WILLIAM MARSH RICE UNIVERSITY, priority 2015, dated 2020).

Holding throughout (format): cell-based
The test system of test [1] is HEK 293T (human embryonic kidney cells). The test is described as follows: Cytotoxic assay (CellTiter-Glo, 72 h), HEK 293T. The following applies: Homo sapiens, HEK-293T, 72 h, read-out: IC50 HEK 293T. (ATP-based viability assays read luminescence as a measure of living cells.)
Test [2] deals with MES SA (uterine sarcoma cells). The test is described as follows: Cytotoxic assay (CellTiter-Glo, 72 h), MES SA. The conditions noted are these: Homo sapiens, MES-SA, 72 h, read-out: IC50 MES SA.
For test [3], the system named is NCI-60 human cancer cell line panel. Kind of test: NCI-60 one-dose test. The following applies: one-dose test (10 μM), NCI-60 panel. As to the method: A number of the synthesized compounds (i.e. Tb1-Tb23) were evaluated for their activity against a variety of cancer cell lines, namely the NCI-60 human cancer cell line panel representing leukemia, melanoma, lung, colon, brain, ovary, breast, prostate and kidney types of cancer through the In Vitro Cell Line Screening Project (IVCLSP) of the National Cancer Institute (NCI), and a summary of the results is shown in Table 1. […] As there was interest in the activity in certain other cell lines, these and the remaining compounds (Tb1-Tb41, PTb-D42 and PTb-D43) were subjected to further testing against MES SA (uterine sarcoma cells), MES SA DX (multidrug resistant uterine sarcoma cells), and HEK 293T (human embryonic kidney cells). […] Tubulysins are known to be substrates for Pgp pumps (Xiangming, et al., 2013; Kaur, et al., 2006; Szakacs, et al., 2006) as supported by the observed low activities of all tubulysins tested except Tb28, Tb32 and Tb33.

The subject of test [4] is MES SA DX (multidrug resistant uterine sarcoma cells). The test is described as follows: Cytotoxic assay (CellTiter-Glo, 72 h), MES SA DX. The following applies: Homo sapiens.

As for `CCC(C)[C@H](NC(=O)c1ccccn1)C(=O)N(C)[C@H](C[C@@H](OC(C)=O)c1nc(C(=O)NC23C4C5C2C2C3C4C52C(=O)OC)cs1)C(C)C` (stereo in doubt) [Tb12, Methyl 4-(2-((1R,3R)-1-acetoxy-3-((2S,3S)—N,3-dimethyl-2-(picolinamido)pentanamido)-4-methyl-pentyl)thiazole-4-carboxamido)cubane-1-carboxylate], the IC50 in test [1], in test [2] and in test [4] was over 50 nM in each case. Besides, the “one dose, mean growth %” value in test [3] worked out at 84.90%.
As for `CCC(C)[C@H](NC(=O)[C@H]1CCCCN1C)C(=O)N(C)[C@H](C(=O)NC12CC(C(=O)N[C@@H](Cc3ccccc3)C[C@H](C)C(=O)OC)(C1)C2)C(C)C` (stereo in doubt) [Tb19, Methyl (2S,4R)-4-(3-((S)-2-((2S,3S)—N,3-dimethyl-2-((R)-1-methylpiperidine-2 carboxamido)pentan amido)-3-methylbutanamido)bicyclo[1.1.1]pentane-1-carboxamido)-2-methyl-5-phenylpentanoate], the IC50 in test [1], in test [2] and in test [4] was over 50 nM each time. Also, the “one dose, mean growth %” value in test [3] amounted to 100.82%.
As to `COC(=O)[C@@H](C)C[C@H](Cc1ccccc1)NC(=O)c1csc([C@@H](C[C@H](C(C)C)N(C)C(=O)[C@@H](NC(=O)C23CC(NC(C)=O)(C2)C3)C2CC2)OC(C)=O)n1` [Tb22, Methyl (2S,4R)-4-(2-((1R,3R)-3-((S)-2-(3-acetamidobicyclo[1.1.1]pentane-1-carboxamido)-2-cyclopropyl-N-methylacetamido)-1-acetoxy-4-methylpentyl)thiazole-4-carboxamido)-2-methyl-5-phenylpentanoate], the IC50 in test [1], in test [2] and in test [4] was over 50 nM throughout. Also, the “one dose, mean growth %” value in test [3] is 49.38%.
On to `CCC(C)[C@H](NC(=O)c1ccccn1)C(=O)N(C)[C@H](C[C@@H](OC(C)=O)c1nc(C(=O)NC23CC(C(=O)OC)(C2)C3)cs1)C(C)C` (stereo in doubt) [Tb15, Methyl 3-(2-((1R,3R)-1-acetoxy-3-((2S,3S)—N,3-dimethyl-2-(picolinamido)pentanamido)-4-methyl-pentyl)thiazole-4-carboxamido)bicyclo[1.1.1]pentane-1-carboxylate], for which the IC50 in test [1], in test [2] and in test [4] was over 50 nM throughout. In test [3], the “one dose, mean growth %” value is 94.38%.
Consider `CC[C@@H](C)[C@H](NC(=O)[C@H]1CCCCN1C)C(=O)N(C)[C@H](C(=O)NC12C3C4C1C1C2C3C41C(=O)N[C@@H](Cc1ccccc1)C[C@H](C)C(=O)OC)C(C)C` (stereo partly drawn) [Tb17, Methyl (2S,4R)-4-(4-((S)-2-((2S,3S)—N,3-dimethyl-2-((R)-1-methylpiperidine-2-carboxamido)penta-namido)-3-methylbutanamido)cubane-1-carboxamido)-2-methyl-5-phenylpentanoate], for which the IC50 in test [1], in test [2] and in test [4] was over 50 nM throughout. The “one dose, mean growth %” value in test [3] is reported as 97.37%.
In the case of `CCC(C)[C@H](NC(=O)CN(C)C)C(=O)N(C)[C@H](C(=O)NC12C3C4C1C1C2C3C41C(=O)N[C@@H](Cc1ccccc1)C[C@H](C)C(=O)OC)C(C)C` (stereo in doubt) [Tb18, Methyl (2S,4R)-4-(4-((S)-2-((2S,3S)-2-(2-(dimethylamino)acetamido)-N,3-dimethylpentanamido)-3-methylbutanamido)cubane-1-carboxamido)-2-methyl-5-phenylpentanoate], the 50% inhibitory concentration (IC50) in test [1], in test [2] and in test [4] was over 50 nM in each case. Also, the “one dose, mean growth %” value in test [3] was 98.48%.

The IC50 is the concentration that inhibits the measured activity by half.
